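Method: 48-hour compound exposure of cells in 96-well plates, five concentrations, linear interpolation of endpoints. TGI is the concentration that stops growth completely.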
Experiments:
Assay in all cases: inhibition of tumour cell growth, NCI panel, 48 h
A498 renal = test system: A498 renal
BT-549 breast = test system: BT-549 breast
CAKI-1 renal = test system: CAKI-1 renal
CCRF-CEM leukemia = test system: CCRF-CEM leukemia
COLO 205 colon = test system: COLO 205 colon
DU-145 prostate = test system: DU-145 prostate
HCC-2998 colon = test system: HCC-2998 colon
HCT-116 colon = test system: HCT-116 colon
HCT-15 colon = test system: HCT-15 colon
HL-60(TB) leukemia = test system: HL-60(TB) leukemia
HOP-62 NSCLC = test system: HOP-62 NSCLC
HS 578T breast = test system: HS 578T breast
HT29 colon = test system: HT29 colon
IGROV1 ovarian = test system: IGROV1 ovarian
K-562 leukemia = test system: K-562 leukemia
KM12 colon = test system: KM12 colon
M14 melanoma = test system: M14 melanoma
MALME-3M melanoma = test system: MALME-3M melanoma
MCF7 breast = test system: MCF7 breast
MDA-MB-231 breast = test system: MDA-MB-231 breast
MDA-MB-435 = test system: MDA-MB-435
MDA-N = test system: MDA-N
MOLT-4 leukemia = test system: MOLT-4 leukemia
NCI-H226 lung = test system: NCI-H226 lung
NCI-H23 lung = test system: NCI-H23 lung
NCI-H460 lung = test system: NCI-H460 lung
NCI-H522 lung = test system: NCI-H522 lung
NCI/ADR-RES ovarian = test system: NCI/ADR-RES ovarian
OVCAR-3 ovarian = test system: OVCAR-3 ovarian
OVCAR-4 ovarian = test system: OVCAR-4 ovarian
OVCAR-5 ovarian = test system: OVCAR-5 ovarian
OVCAR-8 ovarian = test system: OVCAR-8 ovarian
PC-3 prostate = test system: PC-3 prostate
RPMI-8226 leukemia = test system: RPMI-8226 leukemia
RXF 393 renal = test system: RXF 393 renal
SF-295 CNS = test system: SF-295 CNS
SK-MEL-2 melanoma = test system: SK-MEL-2 melanoma
SK-MEL-28 melanoma = test system: SK-MEL-28 melanoma
SK-MEL-5 melanoma = test system: SK-MEL-5 melanoma
SK-OV-3 ovarian = test system: SK-OV-3 ovarian
SN12C renal = test system: SN12C renal
SNB-19 CNS = test system: SNB-19 CNS
SNB-75 CNS = test system: SNB-75 CNS
SR leukemia = test system: SR leukemia
T-47D breast = test system: T-47D breast
U251 CNS = test system: U251 CNS
UACC-62 melanoma = test system: UACC-62 melanoma
UO-31 renal = test system: UO-31 renal
786-0 renal = test system: 786-0 renal
A549 NSCLC = test system: A549 NSCLC
ACHN renal = test system: ACHN renal
EKVX NSCLC = test system: EKVX NSCLC
HOP-92 NSCLC = test system: HOP-92 NSCLC
SF-268 CNS = test system: SF-268 CNS
SF-539 CNS = test system: SF-539 CNS
SW-620 colon = test system: SW-620 colon
TK-10 renal = test system: TK-10 renal
UACC-257 melanoma = test system: UACC-257 melanoma
LOX IMVI melanoma = test system: LOX IMVI melanoma

Measured: TGI

O=C(O)c1cc([N+](=O)[O-])cc2c(=O)c3cnccc3[nH]c12
not listed: 786-0 renal | A549 NSCLC | ACHN renal | EKVX NSCLC | HOP-92 NSCLC | SF-268 CNS | SF-539 CNS | SW-620 colon | TK-10 renal | UACC-257 melanoma | LOX IMVI melanoma
> 100 µM: all other assays above

C=C(C)C1=CCC[C@]2(C1)N=C(OC)[C@@H](C(C)C)N=C2OC
87.9 µM: HL-60(TB) leukemia
47.9 µM: RPMI-8226 leukemia
not listed: K-562 leukemia | RXF 393 renal | SR leukemia | LOX IMVI melanoma
> 100 µM: all other assays above

CC1C2(C)OC(=N)C(C#N)(C(c3ccccc3)O2)C1(C#N)C#N (stereo not drawn)
78.6 µM: HS 578T breast
68.7 µM: UACC-257 melanoma
78.2 µM: NCI-H23 lung
26.6 µM: CAKI-1 renal
76.1 µM: SF-268 CNS
22.7 µM: HCC-2998 colon
56.4 µM: UACC-62 melanoma
69.5 µM: OVCAR-5 ovarian
29.1 µM: OVCAR-3 ovarian
25.1 µM: NCI-H460 lung
30.4 µM: COLO 205 colon
49.8 µM: HCT-116 colon
67.6 µM: CCRF-CEM leukemia
87.5 µM: RXF 393 renal
42.7 µM: SK-MEL-2 melanoma
35.4 µM: MDA-MB-231 breast
55.3 µM: T-47D breast
40.3 µM: SF-539 CNS
46.6 µM: U251 CNS
56.6 µM: EKVX NSCLC
32 µM: SN12C renal
29.7 µM: HOP-92 NSCLC
49.3 µM: MCF7 breast
40.1 µM: HL-60(TB) leukemia
22.9 µM: HCT-15 colon
88.7 µM: PC-3 prostate
44.4 µM: MDA-N
30.3 µM: SK-MEL-5 melanoma
51.1 µM: 786-0 renal
36.9 µM: LOX IMVI melanoma
45.8 µM: HT29 colon
90.3 µM: MALME-3M melanoma
28 µM: M14 melanoma
not listed: HOP-62 NSCLC | NCI-H522 lung | OVCAR-4 ovarian | RPMI-8226 leukemia | SK-MEL-28 melanoma | SR leukemia | SW-620 colon
> 100 µM: all other assays above

CCC1C2Cc3ccc(O)cc3C1(CC)CCN2C (stereo not drawn)
not listed: HCC-2998 colon
> 100 µM: all other assays above

Source: PubChem BioAssay (NCI)
